{"source": "patent US20120029083A1", "about": "“POLYMORPHIC FORMS OF ALISKIREN HEMIFUMARATE AND PROCESS FOR PREPARATION THEREOF” (Teva Pharmaceutical Industries, Ltd., priority 2007, published 2012)", "settings": "pressed at 2 tons for 1 minute", "experimental": "ARL X-ray powder diffractometer model X′TRA-030, Peltier detector, round standard aluminum sample holder with round zero background quartz plate (or silicon plate in the case of Form XIV) was used. The cathode is CuKα radiation, λ=1.5418 Å. Scanning parameters: Range: 2-40°2θ, continuous Scan, Rate: 3 deg/min. The accuracy of peak positions is defined as +/−0.2° due to experimental differences like instrumentations, and sample preparations.\nThe formulation was mixed and pressed to a tablet. The applied pressure was 2 tons for 1 minute.\nThe formulation is mixed and pressed to a tablet. The applied pressure is 2 tons for 1 minute.", "note": "Like-named read-outs stand apart in the source and are kept apart here.", "data": [{"smiles": "COCCCOc1cc(C[C@@H](C[C@H](N)[C@@H](O)C[C@H](C(=O)NCC(C)(C)C(N)=O)C(C)C)C(C)C)ccc1OC.COCCCOc1cc(C[C@@H](C[C@H](N)[C@@H](O)C[C@H](C(=O)NCC(C)(C)C(N)=O)C(C)C)C(C)C)ccc1OC.O=C(O)/C=C/C(=O)O", "note": "[amorphous aliskiren hemifumarate, (2S,4S,5S,7S)-N-(2-Carbamoyl-2-methylpropyl)-5-amino-4-hydroxy-2,7-diisopropyl-8-[4-methoxy-3-(3-methoxypropoxy)phenyl]-octanamide hemifumarate]", "values": [{"measurement": "conversion of amorphous form to a crystalline phase in pressed tablet (XRPD)", "setting": "formulation Example 67 (microcrystalline cellulose, PVP, crosspovidone, aerosil 200, Mg stearate)", "result": "No conversion of the amorphous Aliskiren to a crystalline phase"}, {"measurement": "conversion of amorphous form to a crystalline phase in pressed tablet (XRPD)", "setting": "formulation Example 68 (lactose monohydrate, PVP, crosspovidone, Mg stearate), written in present tense", "result": "No conversion of the amorphous Aliskiren to a crystalline phase"}]}]}
